# Results taken from patent US10023570B2 (Array BioPharma, Inc., priority 2015, dated 2018).
# pIC50: −log10 of the molar value.
# Target: human KDR protein in HEK-293 cells (Homo sapiens (Human), UniProt P35968)
# Assay: KDR Cell Assay (phospho-KDR in HEK-293 cells expressing inducible KDR)
# Type: cell-based
# Conditions: pKDR Cell HEK 10% FBS IC50, HEK-293 cells expressing inducible KDR, VEGF stimulated, 10% FBS
# Protocol: The cellular potency of a compound inhibiting KDR kinase was determined in HEK-293 cells expressing an inducible human KDR protein. […] The cells were incubated for 1 hour with test compound in DMEM at a final DMSO concentration of 0.25%. […] The media was aspirated and 35 μL of a 1× lysis buffer was added. […] The lysate was stored at −80° C. until ready for assay. Phospho-KDR was measured using a phospho-KDR kit (Catalog #K151BOC) purchased from Meso Scale Diagnostics (Rockville, Md.) according to the manufacturer's instructions. All values are expressed as percent of percent of control (POC). The POC values were fitted to a 4 parameter logistic curve fit and the IC50 value is point where the curve crosses 50 POC.
# Chain of human KDR protein in HEK-293 cells (P35968 20-1356): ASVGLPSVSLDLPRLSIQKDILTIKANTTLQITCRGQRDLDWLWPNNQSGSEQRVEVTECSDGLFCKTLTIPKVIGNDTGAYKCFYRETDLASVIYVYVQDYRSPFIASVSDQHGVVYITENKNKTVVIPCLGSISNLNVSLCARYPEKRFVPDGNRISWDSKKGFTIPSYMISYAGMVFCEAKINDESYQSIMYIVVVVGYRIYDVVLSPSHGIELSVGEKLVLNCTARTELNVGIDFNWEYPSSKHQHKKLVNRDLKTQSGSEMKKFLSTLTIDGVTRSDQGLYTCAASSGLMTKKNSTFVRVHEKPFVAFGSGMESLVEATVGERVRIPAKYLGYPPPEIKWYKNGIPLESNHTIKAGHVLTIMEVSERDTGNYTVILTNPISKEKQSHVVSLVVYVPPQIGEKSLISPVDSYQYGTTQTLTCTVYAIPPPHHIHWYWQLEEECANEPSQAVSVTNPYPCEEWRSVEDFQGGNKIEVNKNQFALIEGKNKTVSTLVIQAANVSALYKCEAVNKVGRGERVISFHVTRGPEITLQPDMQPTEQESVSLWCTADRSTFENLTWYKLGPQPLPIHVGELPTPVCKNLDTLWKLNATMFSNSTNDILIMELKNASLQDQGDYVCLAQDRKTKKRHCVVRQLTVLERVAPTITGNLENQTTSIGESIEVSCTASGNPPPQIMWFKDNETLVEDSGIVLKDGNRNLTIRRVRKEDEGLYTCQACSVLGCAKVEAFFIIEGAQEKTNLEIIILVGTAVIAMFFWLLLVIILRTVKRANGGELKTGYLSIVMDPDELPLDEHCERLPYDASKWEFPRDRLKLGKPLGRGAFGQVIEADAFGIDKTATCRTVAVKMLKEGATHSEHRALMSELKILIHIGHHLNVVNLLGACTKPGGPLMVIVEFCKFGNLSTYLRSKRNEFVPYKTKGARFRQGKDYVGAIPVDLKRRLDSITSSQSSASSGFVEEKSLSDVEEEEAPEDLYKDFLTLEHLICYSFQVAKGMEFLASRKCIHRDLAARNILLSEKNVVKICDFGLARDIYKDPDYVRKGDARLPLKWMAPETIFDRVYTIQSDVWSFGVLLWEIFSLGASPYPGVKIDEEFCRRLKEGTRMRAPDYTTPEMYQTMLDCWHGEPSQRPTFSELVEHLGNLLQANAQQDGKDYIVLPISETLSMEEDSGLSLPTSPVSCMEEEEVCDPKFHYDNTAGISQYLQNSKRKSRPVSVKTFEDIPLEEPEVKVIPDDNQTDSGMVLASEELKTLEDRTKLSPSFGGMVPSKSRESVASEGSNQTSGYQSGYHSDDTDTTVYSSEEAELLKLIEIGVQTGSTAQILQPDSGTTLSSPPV
row,SMILES,pIC50
1,"Cn1cc(-c2cc(-c3ccc(N4CCN(C(=O)N5CCCCC5)CC4)nc3)c3c(C#N)cnn3c2)cn1 [Example 93, 6-(1-methyl-1H-pyrazol-4-yl)-4-(6-(4-(piperidine-1-carbonyl)piperazin-1-yl)pyridin-3-yl)pyrazolo[1,5-a]pyridine-3-carbonitrile]",5.77
2,"Cn1cc(-c2cc(-c3ccc(N4CCN(C(=O)N5CCCC(F)(F)C5)CC4)nc3)c3c(C#N)cnn3c2)cn1 [Example 94, 4-(6-(4-(3,3-difluoropiperidine-1-carbonyl)piperazin-1-yl)pyridin-3-yl)-6-(1-methyl-1H-pyrazol-4-yl)pyrazolo[1,5-a]pyridine-3-carbonitrile]",5.77
3,"Cn1cc(-c2cc(-c3ccc(N4CCN(C(=O)N5C6CCC5CC6)CC4)nc3)c3c(C#N)cnn3c2)cn1 [Example 95, 4-(6-(4-(7-azabicyclo[2.2.1]heptane-7-carbonyl)piperazin-1-yl)pyridin-3-yl)-6-(1-methyl-1H-pyrazol-4-yl)pyrazolo[1,5-a]pyridine-3-carbonitrile]",5.88
4,"Cn1cc(-c2cc(-c3ccc(N4CCN(C(=O)N5CCC(F)(F)C5)CC4)nc3)c3c(C#N)cnn3c2)cn1 [Example 101, 4-(6-(4-(3,3-difluoropyrrolidine-1-carbonyl)piperazin-1-yl)pyridin-3-yl)-6-(1-methyl-1H-pyrazol-4-yl)pyrazolo[1,5-a]pyridine-3-carbonitrile]",6.06
5,"Cn1cc(-c2cc(-c3ccc(N4CCN(C(=O)N5CC[C@@H](F)C5)CC4)nc3)c3c(C#N)cnn3c2)cn1 [Example 103, (R)-4-(6-(4-(3-fluoropyrrolidine-1-carbonyl)piperazin-1-yl)pyridin-3-yl)-6-(1-methyl-1H-pyrazol-4-yl)pyrazolo[1,5-a]pyridine-3-carbonitrile]",6.07
6,"Cn1cc(-c2cc(-c3ccc(N4CCN(C(=O)N[C@H]5CCOC5)CC4)nc3)c3c(C#N)cnn3c2)cn1 [Example 105, (S)-4-(5-(3-cyano-6-(1-methyl-1H-pyrazol-4-yl)pyrazolo[1,5-a]pyridin-4-yl)pyridin-2-yl)-N-(tetrahydrofuran-3-yl)piperazine-1-carboxamide]",5.94
7,"Cn1cc(-c2cc(-c3ccc(N4CCN(C(=O)N[C@@H]5CCOC5)CC4)nc3)c3c(C#N)cnn3c2)cn1 [Example 106, (R)-4-(5-(3-cyano-6-(1-methyl-1H-pyrazol-4-yl)pyrazolo[1,5-a]pyridin-4-yl)pyridin-2-yl)-N-(tetrahydrofuran-3-yl)piperazine-1-carboxamide]",5.86
8,"CC(C)O[C@@H]1CCN(C(=O)N2CCN(c3ccc(-c4cc(-c5cnn(C)c5)cn5ncc(C#N)c45)cn3)CC2)C1 [Example 107, (R)-4-(6-(4-(3-isopropoxypyrrolidine-1-carbonyl)piperazin-1-yl)pyridin-3-yl)-6-(1-methyl-1H-pyrazol-4-yl)pyrazolo[1,5-a]pyridine-3-carbonitrile]",6.05
9,"CN(C(=O)N1CCN(c2ccc(-c3cc(-c4cnn(C)c4)cn4ncc(C#N)c34)cn2)CC1)c1ccccc1 [Example 109, 4-(5-(3-cyano-6-(1-methyl-1H-pyrazol-4-yl)pyrazolo[1,5-a]pyridin-4-yl)pyridin-2-yl)-N-methyl-N-phenylpiperazine-1-carboxamide]",6.44
10,"COC[C@H]1CCCN1C(=O)N1CCN(c2ccc(-c3cc(-c4cnn(C)c4)cn4ncc(C#N)c34)cn2)CC1 [Example 110, (R)-4-(6-(4-(2-(methoxymethyl)pyrrolidine-1-carbonyl)piperazin-1-yl)pyridin-3-yl)-6-(1-methyl-1H-pyrazol-4-yl)pyrazolo[1,5-a]pyridine-3-carbonitrile]",5.88
11,"COC[C@@H]1CCCN1C(=O)N1CCN(c2ccc(-c3cc(-c4cnn(C)c4)cn4ncc(C#N)c34)cn2)CC1 [Example 111, (S)-4-(6-(4-(2-(methoxymethyl)pyrrolidine-1-carbonyl)piperazin-1-yl)pyridin-3-yl)-6-(1-methyl-1H-pyrazol-4-yl)pyrazolo[1,5-a]pyridine-3-carbonitrile]",5.71
12,"Cn1cc(-c2cc(-c3ccc(N4CCN(C(=O)N5CCC[C@H]5C#N)CC4)nc3)c3c(C#N)cnn3c2)cn1 [Example 112, (S)-4-(6-(4-(2-cyanopyrrolidine-1-carbonyl)piperazin-1-yl)pyridin-3-yl)-6-(1-methyl-1H-pyrazol-4-yl)pyrazolo[1,5-a]pyridine-3-carbonitrile]",6.06
13,"Cn1cc(-c2cc(-c3ccc(N4CCN(C(=O)N5CCC(F)CC5)CC4)nc3)c3c(C#N)cnn3c2)cn1 [Example 114, 4-(6-(4-(4-fluoropiperidine-1-carbonyl)piperazin-1-yl)pyridin-3-yl)-6-(1-methyl-1H-pyrazol-4-yl)pyrazolo[1,5-a]pyridine-3-carbonitrile]",5.65
14,"Cn1cc(-c2cc(-c3ccc(N4CCN(C(=O)N5CCC(F)(F)CC5)CC4)nc3)c3c(C#N)cnn3c2)cn1 [Example 115, 4-(6-(4-(4,4-difluoropiperidine-1-carbonyl)piperazin-1-yl)pyridin-3-yl)-6-(1-methyl-1H-pyrazol-4-yl)pyrazolo[1,5-a]pyridine-3-carbonitrile]",5.50
15,"Cn1cc(-c2cc(-c3ccc(N4CCN(C(=O)N5CCCC(F)C5)CC4)nc3)c3c(C#N)cnn3c2)cn1 (stereo not drawn) [Example 116, 4-(6-(4-(3-fluoropiperidine-1-carbonyl)piperazin-1-yl)pyridin-3-yl)-6-(1-methyl-1H-pyrazol-4-yl)pyrazolo[1,5-a]pyridine-3-carbonitrile]",5.64

# Further compounds by rising pIC50, results first:
row,pIC50,SMILES
1,6.12,"CO[C@H]1CCN(C(=O)N2CCN(c3ccc(-c4cc(-c5cnn(C)c5)cn5ncc(C#N)c45)cn3)CC2)C1 [Example 97, (S)-4-(6-(4-(3-methoxypyrrolidine-1-carbonyl)piperazin-1-yl)pyridin-3-yl)-6-(1-methyl-1H-pyrazol-4-yl)pyrazolo[1,5-a]pyridine-3-carbonitrile]"
2,6.18,"Cn1cc(-c2cc(-c3ccc(N4CCN(C(=O)N5CCC[C@H]5C(F)(F)F)CC4)nc3)c3c(C#N)cnn3c2)cn1 [Example 113, (S)-6-(1-methyl-1H-pyrazol-4-yl)-4-(6-(4-(2-(trifluoromethyl)pyrrolidine-1-carbonyl)piperazin-1-yl)pyridin-3-yl)pyrazolo[1,5-a]pyridine-3-carbonitrile]"
3,6.20,"CO[C@@H]1CCN(C(=O)N2CCN(c3ccc(-c4cc(-c5cnn(C)c5)cn5ncc(C#N)c45)cn3)CC2)C1 [Example 104, (R)-4-(6-(4-(3-methoxypyrrolidine-1-carbonyl)piperazin-1-yl)pyridin-3-yl)-6-(1-methyl-a]pyridine-3-carbonitrile 1H-pyrazol-4-yl)pyrazolo[1,5-]"
4,6.26,"Cn1cc(-c2cc(-c3ccc(N4CCN(C(=O)N5CC[C@H](F)C5)CC4)nc3)c3c(C#N)cnn3c2)cn1 [Example 102, (S)-4-(6-(4-(3-fluoropyrrolidine-1-carbonyl)piperazin-1-yl)pyridin-3-yl)-6-(1-methyl-1H-pyrazol-4-yl)pyrazolo[1,5-a]pyridine-3-carbonitrile]"
5,6.27,"CC(C)O[C@H]1CCN(C(=O)N2CCN(c3ccc(-c4cc(-c5cnn(C)c5)cn5ncc(C#N)c45)cn3)CC2)C1 [Example 108, (S)-4-(6-(4-(3-isopropoxypyrrolidine-1-carbonyl)piperazin-1-yl)pyridin-3-yl)-6-(1-methyl-1H-pyrazol-4-yl)pyrazolo[1,5-a]pyridine-3-carbonitrile]"
6,6.37,"CO[C@@H](C(=O)N1CCN(c2ccc(-c3cc(-c4cnn(C)c4)cn4ncc(C#N)c34)cn2)CC1)C(C)C [Example 86, (R)-4-(6-(4-(2-methoxy-3-methylbutanoyl)piperazin-1-yl)pyridin-3-yl)-6-(1-methyl-1H-pyrazol-4-yl)pyrazolo[1,5-a]pyridine-3-carbonitrile]"
7,6.45,"Cn1cc(-c2cc(-c3ccc(N4CCN(C(=O)N5CCC6(CC6)C5)CC4)nc3)c3c(C#N)cnn3c2)cn1 [Example 117, 4-(6-(4-(5-azaspiro[2.4]heptane-5-carbonyl)piperazin-1-yl)pyridin-3-yl)-6-(1-methyl-1H-pyrazol-4-yl)pyrazolo[1,5-a]pyridine-3-carbonitrile]"
8,6.71,"Cn1cc(-c2cc(-c3ccc(N4CCN(S(C)(=O)=O)CC4)nc3)c3c(C#N)cnn3c2)cn1 [Example 88, 6-(1-methyl-1H-pyrazol-4-yl)-4-(6-(4-(methylsulfonyl)piperazin-1-yl)pyridin-3-yl)pyrazolo[1,5-a]pyridine-3-carbonitrile]"
9,6.72,Cn1cc(-c2cc(-c3ccc(N4CCN(S(=O)(=O)CC(C)(C)C)CC4)nc3)c3c(C#N)cnn3c2)cn1 [Example 89]
10,7.22,"Cn1cc(-c2cc(-c3ccc(N4CCN(S(=O)(=O)C5CCOCC5)CC4)nc3)c3c(C#N)cnn3c2)cn1 [Example 91, 6-(1-methyl-1H-pyrazol-4-yl)-4-(6-(4-((tetrahydro-2H-pyran-4-yl)sulfonyl)piperazin-1-yl)pyridin-3-yl)pyrazolo[1,5-a]pyridine-3-carbonitrile]"
11,7.62,"CC(C)CS(=O)(=O)N1CCN(c2ccc(-c3cc(-c4cnn(C)c4)cn4ncc(C#N)c34)cn2)CC1 [Example 90, 4-(6-(4-(isobutylsulfonyl)piperazin-1-yl)pyridin-3-yl)-6-(1-methyl-1H-pyrazol-4-yl)pyrazolo[1,5-a]pyridine-3-carbonitrile]"
12,8.24,"Cn1cc(-c2cc(-c3ccc(N4CCN(S(=O)(=O)CC5CC5)CC4)nc3)c3c(C#N)cnn3c2)cn1 [Example 87, 4-(6-(4-((cyclopropylmethyl)sulfonyl)piperazin-1-yl)pyridin-3-yl)-6-(1-methyl-1H-pyrazol-4-yl)pyrazolo[1,5-a]pyridine-3-carbonitrile]"
